Laboratory results reported in patent US20120083522A1, “MODULATION OF INFLAMMATORY RESPONSES BY FACTOR XI” (Isis Pharmaceuitcals, inc., priority 2009, published 2012).
e = 2'-O-(2-methoxyethyl) (MOE); d = 2'-deoxy (DNA)

Columns and labels:
[1] = Tolerability in Sprague-Dawley rats: kidney function (Example 19); format: in vivo; conditions: Sprague-Dawley rats, plasma, 50 mg/kg s.c. twice per week for 6 weeks
Source text: (§1) Urine samples were taken before the start of treatment.

[2] = Tolerability in CD1 mice: hematology assays (Example 17); format: in vivo; conditions: for lymphocyte count / monocyte count / neutrophil count: percent of total blood cell count; for HCT / MCH / MCHC / MCV / WBC count: blood, 50 mg/kg s.c. twice a week
Protocol: A control group of five mice was injected subcutaneously with PBS for 2 weeks. All experimental groups (i.e. ASO treated mice at 2, 4, 6 weeks) were compared to the control group (i.e. PBS, 2 weeks).
Blood obtained from all mice groups were sent to Antech Diagnostics for hematocrit (HCT), mean corpuscular volume (MCV), mean corpuscular hemoglobin (MCH), and mean corpuscular hemoglobin concentration (MCHC) measurements and analyses, as well as measurements of the various blood cells, such as WBC (neutrophils, lymphocytes, and monocytes), RBC, and platelets, and total hemoglobin content. Percentages given in the tables indicate the percent of total blood cell count.

[3] = Tolerability in CD1 mice: kidney function (Example 17); format: in vivo; conditions: plasma, 50 mg/kg s.c. twice a week
Source text: Results are presented in Tables 62 and 63, expressed in mg/dL.

[4] = Tolerability in CD1 mice: liver function (Example 17); format: in vivo; parameters: Albumin: unit not given here; conditions: plasma, 50 mg/kg s.c. twice a week
[5] = Tolerability in Sprague-Dawley rats: liver function (Example 19); format: in vivo; conditions: plasma, 50 mg/kg s.c. twice per week for 6 weeks
Source text: as §1

[6] = Tolerability in Sprague-Dawley rats: hematology assays (Example 19); format: in vivo; conditions: 50 mg/kg s.c. twice per week for 6 weeks
[7] = as above; format: in vivo; conditions: 50 mg/kg s.c. twice per week for 6 weeks; remark: listed apart in the source
Source text: as §1

[8] = parameters: species or system Sprague-Dawley rats; conditions: rat, in vivo, sc, 20 mg/kg
Protocol: The concentration of the full-length oligonucleotide as well as the total oligonucleotide concentration (including the degraded form) was measured. The method used is a modification of previously published methods (Leeds et al., 1996; Geary et al., 1999) which consist of a phenol-chloroform (liquid-liquid) extraction followed by a solid phase extraction. An internal standard (ISIS 355868, a 27-mer 2′-O-methoxyethyl modified phosphorothioate oligonucleotide, […], designated herein as SEQ ID NO: 270) was added prior to extraction. […] The results are presented in Tables 98 and 99, expressed as μg/g liver or kidney tissue.

human Factor XI mRNA [9] = experiment: Antisense inhibition in HepG2 cells by microwalk gapmers, 75 nM, lipofectin (Example 3); format: cell-based; conditions: HepG2 cells, 75 nM, oligonucleotides targeted to nucleobases 1275 to 1318 of SEQ ID NO: 1
Procedure, shortened: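 HepG2 cells (10,000 per well) were transfected with 75 nM gapmer using lipofectin and treated for about 24 h. Factor XI mRNA was quantified by real-time PCR, normalized to RiboGreen total RNA and expressed as percent inhibition versus untreated controls.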

human Factor XI mRNA [10] = experiment: Dose-dependent antisense inhibition in HepG2 cells, lipofectin (Example 2); format: cell-based; conditions: approximately 16 hours
Protocol: Cells were plated at a density of 10,000 cells per well and transfected using lipofectin reagent with 9.375 nM, 18.75 nM, 37.5 nM, 75 nM, and 150 nM concentrations of antisense oligonucleotide, as specified in Table 3. After a treatment period of approximately 16 hours, RNA was isolated from the cells and Factor XI mRNA levels were measured by quantitative real-time PCR. Human Factor XI primer probe set RTS 2966 (forward sequence: […], incorporated herein as SEQ ID NO: 3; reverse sequence: […], incorporated herein as SEQ ID NO: 4; probe sequence: TTGTCTACTGAAGCACACCCAAACAGGGAX, wherein X is the fluorophore, incorporated herein as SEQ ID NO: 5) was used to measure mRNA levels. Factor XI mRNA levels were adjusted according to total RNA content, as measured by RIBOGREEN®. Results are presented as percent inhibition of Factor XI, relative to untreated control cells.

human Factor XI mRNA [11] = experiment: Antisense inhibition in HepG2 cells by microwalk gapmers, 8,000 nM, electroporation (Example 14); format: cell-based; conditions: HepG2 cells, 8,000 nM
Procedure, shortened: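 Percent reduction of Factor XI transcript, relative to untreated controls, by real-time PCR with RIBOGREEN normalisation. Readout taken about 24 h after electroporating HepG2 cells with 8,000 nM oligonucleotide. Gapmers are 5-10-5, 5-8-5 or 6-8-6 MOE wings, phosphorothioate backbone.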

ATGCCCTTCATGTCTAGGTC (all C 5-methyl, all phosphorothioate, sugars by position not given here; MOE gapmer) [ISIS 416826, 5-10-5 MOE gapmer]
BUN [1]: 25 mg/dL
creatinine [1]: 6 mg/dL
RBC count ([2]; 2 weeks): 8 cells/pL
hemoglobin content ([2]; 2 weeks): 13.4 g/dL
platelet count ([2]; 2 weeks): 1498 cells/nL
lymphocyte count ([2]; 2 weeks): 70%
monocyte count ([2]; 2 weeks): 3%
neutrophil count ([2]; 2 weeks): 26%
RBC count ([2]; 4 weeks): 8 cells/pL
hemoglobin content ([2]; 4 weeks): 12.8 g/dL
platelet count ([2]; 4 weeks): 970 cells/nL
lymphocyte count ([2]; 4 weeks): 61%
monocyte count ([2]; 4 weeks): 5%
neutrophil count ([2]; 4 weeks): 33%
RBC count ([2]; 6 weeks): 7 cells/pL
hemoglobin content ([2]; 6 weeks): 11.0 g/dL
platelet count ([2]; 6 weeks): 645 cells/nL
lymphocyte count ([2]; 6 weeks): 67%
monocyte count ([2]; 6 weeks): 8%
neutrophil count ([2]; 6 weeks): 23%
HCT ([2]; 2 weeks): 47%
MCH ([2]; 2 weeks): 17 pg
MCHC ([2]; 2 weeks): 29%
MCV ([2]; 2 weeks): 56 fL
WBC count ([2]; 2 weeks): 5 cells/nL
HCT ([2]; 4 weeks): 41%
MCH ([2]; 4 weeks): 16 pg
MCHC ([2]; 4 weeks): 31%
MCV ([2]; 4 weeks): 52 fL
WBC count ([2]; 4 weeks): 6 cells/nL
HCT ([2]; 6 weeks): 37%
MCH ([2]; 6 weeks): 16 pg
MCHC ([2]; 6 weeks): 30%
MCV ([2]; 6 weeks): 53 fL
WBC count ([2]; 6 weeks): 8 cells/nL
BUN ([3]; 2 weeks): 24 mg/dL
creatinine ([3]; 2 weeks): 0.15 mg/dL
BUN ([3]; 4 weeks): 34 mg/dL
creatinine ([3]; 4 weeks): 0.20 mg/dL
BUN ([3]; 6 weeks): 27 mg/dL
creatinine ([3]; 6 weeks): 0.15 mg/dL
ALT ([4]; 2 weeks): 182 IU/L
AST ([4]; 2 weeks): 274 IU/L
Albumin ([4]; 2 weeks): 3.3
Bilirubin ([4]; 2 weeks): 0.39 mg/dL
ALT ([4]; 4 weeks): 126 IU/L
AST ([4]; 4 weeks): 156 IU/L
Albumin ([4]; 4 weeks): 3.4
Bilirubin ([4]; 4 weeks): 0.20 mg/dL
ALT ([4]; 6 weeks): 1954 IU/L
AST ([4]; 6 weeks): 1411 IU/L
Albumin ([4]; 6 weeks): 3.4
Bilirubin ([4]; 6 weeks): 0.37 mg/dL
ALT [5]: 611 IU/L
AST [5]: 104 IU/L
Albumin [5]: 6 mg/dL
Bilirubin [5]: 115 mg/dL
Monocytes [6]: 7%
Neutrophils [6]: 30%
Platelets [6]: 11 10^3/μL
RBC [6]: 5 pL⁻¹
WBC [6]: 7 nL⁻¹
HCT ([6]; title says % control): 7%
Hemoglobin ([6]; title says % control): 7 g/dL
MCHC ([6]; title says % control): 4%
MCV ([6]; title says % control): 6 fL
Lymphocytes [7]: 5%
MCH ([7]; title says % control): 3 pg

412223 (antisense ACAGTTTCTGGCAGGCCTCG; sugars from the 5' end e5 d10 e5, backbone and methylation of C not given here) [compound 412223]
Half-life in the liver and kidney [8]: 22 days
% inhibition of human Factor XI mRNA levels (human Factor XI mRNA [9]): 85%
percent inhibition of Factor XI (human Factor XI mRNA [10]; 9.375 nM): 33%
percent inhibition of Factor XI (human Factor XI mRNA [10]; 18.75 nM): 48%
percent inhibition of Factor XI (human Factor XI mRNA [10]; 37.5 nM): 62%
percent inhibition of Factor XI (human Factor XI mRNA [10]; 75 nM): 76%
percent inhibition of Factor XI (human Factor XI mRNA [10]; 150 nM): 81%
Percent inhibition of human Factor XI mRNA levels (human Factor XI mRNA [11]): 62%

413482 (antisense GGACGGCATTGGTGCACAGT; sugars from the 5' end e5 d10 e5, backbone and methylation of C not given here) [compound 413482]
Half-life in the liver and kidney [8]: 20 days
% inhibition of human Factor XI mRNA levels (human Factor XI mRNA [9]): 89%
percent inhibition of Factor XI (human Factor XI mRNA [10]; 9.375 nM): 26%
percent inhibition of Factor XI (human Factor XI mRNA [10]; 18.75 nM): 39%
percent inhibition of Factor XI (human Factor XI mRNA [10]; 37.5 nM): 59%
percent inhibition of Factor XI (human Factor XI mRNA [10]; 75 nM): 74%
percent inhibition of Factor XI (human Factor XI mRNA [10]; 150 nM): 82%
Percent inhibition of human Factor XI mRNA levels (human Factor XI mRNA [11]): 88%
